PubChem BioAssay AID504642 (Southern Research Specialized Biocontainment Screening …, 2011)
The source made the active and inactive calls. No rule for the calls is given here.

Tested on: not listed separately
Assay: cytotoxicity in HepG2 cells, cytotoxicity control, cell-based (AID 504642)
Conditions: HepG2 viability, cytotoxicity counter-screen; at 25 µM (top of the series)
In the case of `COC(=O)C(Nc1nc(SCC(=O)NC2CCCCC2)nc2ccccc12)c1ccccc1` (stereo unspecified), the viability is reported as 100% (inactive).
With `O=C(/C=C/c1ccccc1)N1CCN(CCN2C(=O)c3cccc4cccc(c34)C2=O)CC1` the viability was 91.1% (inactive).

Same assay, conditions: HepG2 viability, cytotoxicity counter-screen; at 50 µM (top of the series)
With `CCOC1OC(=O)C(Cl)=C1Nc1ccccc1C` (stereo unspecified) the viability was 97.8% (inactive).
With `CCOC(=O)C(C)Sc1ncnc2c1nnn2-c1ccc(F)cc1` (stereo unspecified) the viability was 94.1% (inactive).
In the case of `CC[N+](C)(CC)CCCCOc1ccc2c(c1)C(=O)c1cc(OCCCC[N+](C)(CC)CC)ccc1-2`, the viability is reported as 93.8% (inactive).
For `O=C(CSc1nc2ccccc2c(=O)[nH]1)NC1CCCCC1`, the viability was 103% (inactive).
For `CC1CCN(C(=O)C2CCN(c3nnc(-n4cccc4)s3)CC2)CC1`, the viability was 81.6% (inactive).
For `COc1cc(NC(=O)C/C(C)=N/NC(=O)c2ccccn2)c(OC)cc1Cl`, the viability was 86.2% (inactive).
For `Cc1ccc(NC(=O)C2C3/C=C\CCCCC32)cc1C` (stereo unspecified), the viability was 101% (inactive).
For `CCOC(=O)CNC(=O)[C@H](Cc1ccccc1)NC(=O)OCc1ccccc1`, the viability was 97.3% (inactive).
With `COC(=O)CCc1nc2c(C#N)c(-c3ccc(Cl)cc3)ccn2n1` the viability was 102% (inactive).
In the case of `O=C(/C=C\c1cccs1)N1CCN(Cc2ccc3c(c2)OCO3)CC1`, the viability is reported as 84.1% (inactive).
For `CC(=NCc1ccc2c(c1)OCO2)C1=C(O)c2ccccc2C1=O`, the viability was 96.6% (inactive).
In the case of `CCOC(=O)COc1ccc(/C=C2\NC(=S)N(CC)C2=O)cc1`, the viability is reported as 94.6% (inactive).
With `CCOC(=O)COn1c2c(c3c4no[n+]([O-])c4ccc31)CCCC2` the viability was 85.5% (inactive).
For `COC(=O)c1ccc(CNc2c(N3CCCC3)c(=O)c2=O)cc1`, the viability was 97.5% (inactive).
In the case of `O=C1C(Br)=Cc2cccc3cccc1c23`, the viability is reported as 86.1% (inactive).
With `Cc1nc(SCC(=O)NC2CCCCC2)[nH]c(=O)c1C` the viability was 105% (inactive).
For `COC(=O)C(C)Oc1ccc(-c2nccc(-c3ccccn3)n2)cc1` (stereo unspecified), the viability was 95.4% (inactive).
For `COC(=O)C1CC(=O)N(c2ccc(OCc3ccccc3Cl)cc2)C1` (stereo unspecified), the viability was 98.6% (inactive).
For `CCc1ccc(/C=C2/C(=O)N(C)C(=S)N2CC(=O)OC)s1`, the viability was 78.9% (inactive).
For `O=C(CSc1nc2ccccc2c(=O)[nH]1)NCc1ccc(Cl)cc1`, the viability was 90.7% (inactive).

Tested on: HepG2 viability, cytotoxicity counter-screen
Assay: as above
Conditions: not given
In the case of `CCC(C)Nc1ccc(NC(C)CC)cc1` (stereo unspecified), the CC50 is reported as 6.41 µM.
`Cc1cccc(-c2oc3ccc(-c4ccc5c(c4)OCO5)cc3c2C#Cc2cncn2C)c1` gave a CC50 of 44.4 µM.
Compound `COC(=O)c1cc(=O)n(-c2ccc(F)cc2)c(=Nc2ccc(F)cc2)s1` has a CC50 of 19.4 µM.
In the case of `CCOC(=O)c1ccc(NC(=O)Cn2ncc(Cl)c(Cl)c2=O)cc1`, the CC50 is reported as 8.43 µM.
For `c1ccc(/N=C2\N=C(Nc3ccccn3)c3ccccc32)nc1`, the CC50 was < 0.098 µM.
Compound `CNc1nc(SCc2ccccc2Cl)nc2c1CCCC2` has a CC50 of 26.2 µM.
Work on `CC(C)NC(=O)c1sc(=S)n2c1[nH]c(=O)c1ccc(C(=O)NCCc3ccc(Cl)cc3)cc12` yielded a CC50 of 46.1 µM.
In the case of `Cc1ccc2c(c1)c(C1=c3ccccc3=NC1=O)c(O)n2C`, the CC50 is reported as 12.9 µM.
`Cc1cccc(/C=C/C(=O)c2ccc([N+](=O)[O-])o2)c1` gave a CC50 of 7.91 µM.
`Oc1ccccc1/C=N/Nc1ccnc(SCc2ccccc2)n1` showed a CC50 of 20.1 µM.
For `Cc1nn2c(NCc3ccccn3)cc(C(C)C)nc2c1-c1ccccc1`, the CC50 was < 0.098 µM.
Work on `S=c1nc[nH]c2nc[nH]c12` yielded a CC50 of 7.74 µM.
For `Cc1ccc(C(=O)N/N=C(/CC(=O)c2cccs2)C(F)(F)F)cc1`, the CC50 was 27.5 µM.
In the case of `Cc1ccc2ccc3ccc(C)nc3c2n1`, the CC50 is reported as < 0.195 µM.
